Data as given in patent US6620844B2, “Method for reducing blood insulin levels by reducing in vivo cathepsin L activity” (NewMillennium Pharmaceutical, Inc., priority 2001, dated 2003).
“Also recorded” adds a separate entry of the source.

Tests used:
[1] = test system: rat model of human glomerular disease; conditions: cited from earlier work
Cathepsin B [2] = target: Cathepsin B (Homo sapiens, UniProt P07858); conditions: cited from earlier work; for % of Inhibition, Cathepsin B: at 1 × 10^−6 M
Cathepsin L [3] = target: Cathepsin L (Homo sapiens, UniProt P07711); conditions: cited from earlier work; for % of Inhibition, Cathepsin L: at 1 × 10^−6 M
Papain = target: T1, Papain (Carica papaya, UniProt P00784); conditions: cited from earlier work
T1 sequence (P00784 134-345): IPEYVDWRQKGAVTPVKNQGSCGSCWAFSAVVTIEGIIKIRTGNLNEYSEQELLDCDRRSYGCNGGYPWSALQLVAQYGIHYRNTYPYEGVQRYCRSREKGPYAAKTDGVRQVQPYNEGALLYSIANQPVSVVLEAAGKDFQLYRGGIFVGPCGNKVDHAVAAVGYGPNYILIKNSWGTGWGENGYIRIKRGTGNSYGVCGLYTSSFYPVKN

Cathepsin S = Cathepsin S (Homo sapiens, UniProt P25774); conditions: at 1 × 10^−6 M; cited from earlier work
Cathepsin K [4] = target: T2, Cathepsin K (Homo sapiens, UniProt P43235); conditions: cited from earlier work; for % of Inhibition, Cathepsin K: at 1 × 10^−6 M
T2 sequence (P43235 115-329): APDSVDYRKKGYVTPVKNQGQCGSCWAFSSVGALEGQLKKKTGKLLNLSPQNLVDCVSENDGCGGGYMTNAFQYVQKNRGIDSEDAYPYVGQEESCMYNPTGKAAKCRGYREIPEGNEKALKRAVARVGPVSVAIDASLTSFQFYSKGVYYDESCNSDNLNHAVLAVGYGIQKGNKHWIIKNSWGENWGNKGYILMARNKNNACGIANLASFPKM

Cathepsin C = Cathepsin C (Homo sapiens, UniProt P53634); conditions: at 1 × 10^−6 M; cited from earlier work
cathepsin B [5] = target: T3, cathepsin B (Mus musculus, UniProt P10605); assay: Cysteine protease active site labeling in mouse peritoneal macrophages: cathepsin B; format: cell-based; conditions: 10 μM
T3 construct: endogenous in cells; host or cells: thioglycolate-elicited mouse peritoneal macrophages
Procedure: (§1) FIG. 1. Cysteine protease inhibition profile by synthetic inhibitors in mouse peritoneal macrophages. [^125I]-Z-Tyr-Ala-CHN2-labeled mouse peritoneal macrophages were lysed and separated onto 12% SDS-PAGE to visualize labeled active cathepsins. Doses and inhibitors used were all indicated.
(§2) Mouse peritoneal macrophages were generated by injecting mice with thioglycolate as described in Shi et al. (2000) J. Exp. Med. 191:[…]. After 3-4 days of incubation, peritoneal microphages were washed out using Tris-EDTA buffers containing 6 mM EDTA (pH 8.0). Cells were then seeded onto 24-well plates in DMEM with 10% FBS till complete spread. After cells were attached to the plates, different doses of inhibitors were added. After 2-3 hours of incubation, cells were labeled with [^125I]-Z-Tyr-Ala-CHN2 overnight at 37° C. to detect intracellular active cysteine proteases. Cells were lysed into 1× reducing protein sample buffer and separated onto 12% SDS-PAGE.
(§3) First, the synthetic small molecule compounds were tested for their selectivity toward different forms of cathepsin. Mouse peritoneal macrophages were cultured in the presence of selective inhibitors and cysteine protease active site labeling probe [^125I]-Z-Tyr-Ala-CHN2 (Sukhova et al., supra). […] In contrast, other inhibitors used had no effect on cathepsin B activity. […] Therefore, these inhibitors can be utilized to test if the aforementioned cathepsins play roles in the breakdown of insulin receptor (IR) or IR turnover.

cathepsin L [6] = target: T4, cathepsin L (Mus musculus, UniProt P06797); assay: Cysteine protease active site labeling in mouse peritoneal macrophages: cathepsin L; format: cell-based; conditions: 10 μM, mouse peritoneal macrophages
T4 construct: endogenous in cells; host or cells: thioglycolate-elicited mouse peritoneal macrophages
Procedure: as §1, §2, §3

cathepsin K [7] = target: T5, cathepsin K (Mus musculus, UniProt P55097); assay: Cysteine protease active site labeling in mouse peritoneal macrophages: cathepsin K; format: cell-based; conditions: 10 μM
T5 construct: endogenous in cells; host or cells: thioglycolate-elicited mouse peritoneal macrophages
T5 sequence (P55097 115-329): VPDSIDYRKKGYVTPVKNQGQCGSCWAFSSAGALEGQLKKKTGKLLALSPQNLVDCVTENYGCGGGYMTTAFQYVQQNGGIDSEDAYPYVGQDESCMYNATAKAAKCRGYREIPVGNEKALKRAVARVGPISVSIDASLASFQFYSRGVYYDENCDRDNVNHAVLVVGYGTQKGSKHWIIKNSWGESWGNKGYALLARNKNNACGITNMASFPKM
Procedure: as §1, §2, §3

[8] = test system: insulin receptor β subunit; assay: Insulin receptor turnover in human preadipocytes, Western blot; format: cell-based; conditions: 10 μM, human preadipocytes
Procedure: FIG. 2. […] Human preadipocytes were incubated with and without inhibitors indicated at different doses, lysed, separated onto 7% SDS-PAGE, and probed with goat anti-human insulin receptor β-subunit polyclonal antibodies. Both mature β subunit and its precursor were indicated.
(§4) Human preadipocytes were initially cultured in MSCGM medium (BioWhitaker) at 37° C. and 5% CO2 for 7 to 12 days with 3-4 changes of media till complete confluence. Non-induced cells were kept in adipogenesis maintenance media containing 0.01 mg/ml of insulin, 0.05 units/ml of penicillin, 0.05 μg/ml of streptomycin, and 10% fetal bovine serum. To induce adipogenesis, complete confluent cells were cultured in adipogenesis induction medium containing 1 μM dexamethasone, 0.2 mM indomethacin, 0.01 mg/ml insulin, 0.5 mM 3-isobutyl-1-methyl-xanthine, 0.05 units/ml of penicillin, 0.05 μg/ml of streptomycin, and 10% fetal bovine serum in the presence and absence of protease inhibitors for 3 days followed by three days of culture in maintenance media. After three cycles of induction and maintenance, cells were cultured in maintenance media for additional 7 days with two changes of fresh media.
(§5) After differentiation, cells were collected, and lysed into 1×RIPA buffer. Protein concentrations were determined using Bio-Rad Dc protein assay system according to the manufacturer (Bio-Rad, Hercules, Calif.). Equal amount of proteins were separated on 7% SDS-PAGE for detecting IR and IGF-1R, 12% SDS-PAGE for detecting cathepsins S, K, and L antigens. Both IR and IGF-1R primary polyclonal antibodies were raised from goat and all cathepsin antibodies were polyclonal antibodies raised from rabbit. The corresponding HRP-conjugated secondary antibodies were used for detections.
To test which cathepsin is involved in the IR turnover, human preadipocytes (BioWhittaker, Walkersville, Md.) were induced to become adipocytes in the presence and absence of inhibitors. Differentiated adipocytes expressed more IR than controls as previously reported. Pederson et al. (2000) Biochem. Biophys. Res. Commun. 276:162-168. Cathepsin B inhibitor (CA 074, 10 μM) and catepsin S inhibitor (CLIK 060, 2 μM) had no effect on either IR turnover or differentiation (FIGS. 2). […] The same is true when the blot was tested with insulin like growth factor I receptor (IGF-IR) antibodies (FIG. 3).

[9] = test system: insulin like growth factor I receptor (IGF-IR); assay: IGF-IR levels in human preadipocytes, Western blot; format: cell-based; conditions: 10 μM
Procedure: FIG. 3. […] Cells were treated as in FIG. 2. Western blot analysis was performed using goat anti-human IGF-1R polyclonal antibodies.
as §4, §5
To test which cathepsin is involved in the IR turnover, human preadipocytes (BioWhittaker, Walkersville, Md.) were induced to become adipocytes in the presence and absence of inhibitors. Differentiated adipocytes expressed more IR than controls as previously reported. Pederson et al. (2000) Biochem. Biophys. Res. Commun. 276:162-168. Cathepsin B inhibitor (CA 074, 10 μM) and catepsin S inhibitor (CLIK 060, 2 μM) had no effect on either IR turnover or differentiation (FIGS. 2). […]

[10] = test system: CCAAT/enhancer-binding protein-α (C/EBP-α); assay: C/EBP-α levels in human preadipocytes, Western blot; format: cell-based; conditions: human preadipocytes differentiated with inhibitor, FIG. 4
Procedure: FIG. 4. Inhibition of cathepsin L blocked the expression of CCAAT/enhancer-binding protein. Human preadipocytes were differentiated as in FIG. 2. A 10% gel was used to perform Western blot analysis using goat anti-human C/EBP-α polyclonal antibodies and the blot was detected using the corresponding HRP-conjugated secondary antibodies.
as §4
(§6) To evaluate the cell differentiation levels affected by aforementioned inhibitors, the levels of transcription factors CCAAT/enhancer-binding protein-α (C/EBP-α) as well as peroxisome proliferator-activated receptor-γ (PPAR-γ) from cells treated with and without inhibitors were measured. Both C/EBP-α and PPAR-γ are important adipocyte determination factors. Wu et al. (1999) Mol. Cell. 3:151-158; Tanaka et al. (1997) EMBO J. 16:7432-7443; and Tontonoz et al. (1994) Cell 79:1147-1156.

[11] = test system: peroxisome proliferator-activated receptor-γ (PPAR-γ); assay: PPAR-γ levels in human preadipocytes, Western blot; format: cell-based; conditions: human preadipocytes differentiated with inhibitor, FIG. 5
Procedure: FIG. 5. Inhibition of cathepsin L blocked the expression of PPAR-γ. Human preadipocytes were used and Western blot analysis was performed as in FIG. 4 instead of using mouse anti-human PPAR-γ monoclonal antibodies as the primary antibodies.
as §4, §6

human preadipocytes = assay: Human preadipocyte adipogenesis, oil-red staining; format: cell-based; conditions: 10 μM, human preadipocytes
Procedure: FIG. 6. Oil-red staining of human preadipocytes and adipocytes.
as §4
This hypothesis is further confirmed by oil-red staining of CLIK 148 or 195 treated preadipocytes (FIG. 6). In addition, inhibition of adiogenesis by these two inhibitors is dose dependent. Less than 50% of adipogenesis was blocked by 1 μM of such inhibitors. […] In contrast, 1 μM of CLIK 060, 1 or 10 μM of CA 074 had no effect on adipogenesis (data not shown). Therefore, these observations indicate that cathepsin L appears to play a more critical role than cathepsins S and K in adipogenesis by controlling insulin/IR complex turnover.

mouse 3T3-L1 cells = assay: Mouse 3T3-L1 preadipocyte adipogenesis, oil-red staining; format: cell-based; conditions: 15 μM
Procedure: FIG. 9. Effect of cathepsin L inhibitor during mouse 3T3-L1 preadipocyte differentiation. Mouse 3T3-L1 cells were induced for adipogenesis. CLIK 148 (10 μM) was […] at different time points (days) during adipogenesis. Cells were stained with oil-red at the end of differentiation.
Mouse preadipocytes were differentiated as described in Patel and Lane (2000) J. Biol. Chem. 275:17653-17660. In brief, mouse 3T3-L1 cells were cultured in DMEM containing 10% calf serum till confluence at 37° C. with 10% CO2. After additional two days maintenance in the same media, cells were differentiated by adding 0.5 mM methylisobutylxanthine, 1 μM dexmethasone, 1 μg/ml insulin, and 10% FBS for two days in the presence and absence of protease inhibitors. Culture media were replaced with DMEM containing 1 μg/ml insulin and 10% FBS. After day 4 the cells were fed every other day with 10% FBS in DMEM without insulin. By days 7-8, cells were fully differentiated.
Similar phenotypes were observed using mouse preadipocytes 3T3-L1 (ATCC, Manassas, Va.). Both active cathepsins L and S were found in differentiated adipocytes (FIG. 8, days 8-11). However, levels of both enzyme increased after the differentiation, a phenomenon different from that of human preadipoicytes. […] Cathepsin K antigen was detected in preadipocytes but not adipocytes nor insulin treated cells (FIG. 10).

Cathepsin L, sequence (P07711 114-333, species assumed): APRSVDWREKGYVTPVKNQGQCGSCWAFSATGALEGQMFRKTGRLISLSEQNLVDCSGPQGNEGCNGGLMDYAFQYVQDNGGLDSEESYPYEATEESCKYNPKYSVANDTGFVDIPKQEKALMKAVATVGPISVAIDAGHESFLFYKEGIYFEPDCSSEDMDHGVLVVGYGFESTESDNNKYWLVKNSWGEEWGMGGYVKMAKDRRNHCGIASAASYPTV
Cathepsin S, sequence (P25774 115-331, species assumed): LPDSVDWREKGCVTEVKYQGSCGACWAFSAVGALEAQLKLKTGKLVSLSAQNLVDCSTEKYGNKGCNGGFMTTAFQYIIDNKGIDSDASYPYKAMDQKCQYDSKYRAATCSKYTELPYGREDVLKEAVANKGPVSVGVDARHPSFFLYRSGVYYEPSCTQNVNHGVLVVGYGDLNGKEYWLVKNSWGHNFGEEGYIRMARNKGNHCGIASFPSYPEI
Cathepsin C, sequence (P53634 25-463, species assumed): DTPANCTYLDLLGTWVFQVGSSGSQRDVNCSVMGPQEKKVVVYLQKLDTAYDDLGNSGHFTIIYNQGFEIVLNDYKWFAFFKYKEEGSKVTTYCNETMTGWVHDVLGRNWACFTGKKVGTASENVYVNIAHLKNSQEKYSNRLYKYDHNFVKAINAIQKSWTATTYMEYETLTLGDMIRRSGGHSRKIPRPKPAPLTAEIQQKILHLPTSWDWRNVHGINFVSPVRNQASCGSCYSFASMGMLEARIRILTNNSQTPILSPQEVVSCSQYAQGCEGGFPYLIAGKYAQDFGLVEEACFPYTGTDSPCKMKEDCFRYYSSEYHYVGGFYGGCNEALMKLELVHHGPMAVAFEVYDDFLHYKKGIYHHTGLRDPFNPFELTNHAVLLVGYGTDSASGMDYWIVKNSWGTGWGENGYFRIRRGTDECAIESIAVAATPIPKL
T4 sequence (P06797 114-334): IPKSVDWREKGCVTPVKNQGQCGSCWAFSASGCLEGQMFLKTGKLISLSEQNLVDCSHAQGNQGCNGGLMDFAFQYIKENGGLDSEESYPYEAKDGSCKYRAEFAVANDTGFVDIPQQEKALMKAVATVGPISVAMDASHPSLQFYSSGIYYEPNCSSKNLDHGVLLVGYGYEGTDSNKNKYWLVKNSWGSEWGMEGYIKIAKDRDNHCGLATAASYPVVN
T3 sequence (P10605 80-333 limits assumed): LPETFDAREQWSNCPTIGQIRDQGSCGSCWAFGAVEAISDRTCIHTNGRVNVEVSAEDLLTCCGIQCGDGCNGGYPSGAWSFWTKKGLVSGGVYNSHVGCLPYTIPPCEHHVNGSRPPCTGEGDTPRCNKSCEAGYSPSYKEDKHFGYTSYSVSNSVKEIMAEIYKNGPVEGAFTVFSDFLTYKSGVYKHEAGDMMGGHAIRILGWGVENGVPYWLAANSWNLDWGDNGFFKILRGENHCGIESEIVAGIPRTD

SMILES: CC(C)CCNC(=O)[C@H](CC(C)C)NC(=O)[C@H]1O[C@@H]1C(=O)O (relative stereo) [trans-epoxysuccinyl-L-leucylamido-(3-methyl)butane]
- proteinuria [1]: significantly reduced

SMILES: CCOC(=O)[C@H]1N[C@@H]1C(=O)NC(CC(C)C)C(=O)COC(=O)c1ccccc1 (stereo partly drawn)
- Cathepsin B: K2nd (Cathepsin B [2]): 1,607 M^−1Min^−1
- Cathepsin L: K2nd (Cathepsin L [3]): 16,261 M^−1Min^−1
- Papain: K2nd (Papain): 1,533 M^−1Min^−1

SMILES: CN(C)C(=O)[C@H](Cc1ccccc1)NC(=O)C1O[C@@H]1C(=O)N[C@@H](Cc1ccccc1)C(=O)N(C)C (stereo partly drawn)
- % of Inhibition, Cathepsin S (Cathepsin S): 25%
- % of Inhibition, Cathepsin B (Cathepsin B [2]): 0%
- % of Inhibition, Cathepsin L (Cathepsin L [3]): 100%
- % of Inhibition, Cathepsin K (Cathepsin K [4]): 0%
- % of Inhibition, Cathepsin C (Cathepsin C): 0%

SMILES: O=C(CNC(=O)[C@H](Cc1ccccc1)NC(=O)OCc1ccccc1)NOC(=O)c1ccccc1
- Ki (Cathepsin B [2]): 0.8 to 0.9 nM
- Ki (Cathepsin L [3]): 0.04 to 0.08 nM
- Ki (Cathepsin K [4]): 12 to 16 nM
- Ki (Papain): 2 to 5 nM

SMILES: CN(C)C(=O)[C@H](Cc1ccccc1)NC(=O)C1O[C@@H]1C(=O)NCCc1ccccn1 (stereo partly drawn)
- % of Inhibition, Cathepsin S (Cathepsin S): 30%
- % of Inhibition, Cathepsin B (Cathepsin B [2]): 0%
- % of Inhibition, Cathepsin L (Cathepsin L [3]): 100%
- % of Inhibition, Cathepsin K (Cathepsin K [4]): 0%
- % of Inhibition, Cathepsin C (Cathepsin C): 0%

SMILES: CN(C)C(=O)[C@H](Cc1ccccc1)NC(=O)[C@H]1O[C@@H]1C(=O)NCCc1ccccn1 (relative stereo) [CLIK 148, L-(+)-(2S, 3S)-N-[2-(2′-pyridinyl)-1-ethyl]-Na-amino-(L-phenylalaninedimethylamide)-trans-epoxysuccinamide]
- cathepsin B activity (active site labeling) (cathepsin B [5]): not
- cathepsin L activity (active site labeling) (cathepsin L [6]): completely inhibited
- cathepsin K activity (active site labeling) (cathepsin K [7]): not
- levels of 95 kDa IR β subunit and its precursor [8]: increased levels
- levels of IGF-IR β subunit and its precursor (the same as for IR) [9]: increased levels
- accumulation of 50 kDa C/EBP-α [10]: blocking the accumulation
- accumulation of 50 kDa PPAR-γ [11]: blocking the accumulation
- inhibition of adipogenesis / differentiation (human preadipocytes): complete inhibition; also recorded: completely blocked
- inhibition of adipogenesis in 3T3-L1 cells (mouse 3T3-L1 cells): inhibition of adipogenesis
